Blank lines part the entries; values can stand above or below the compound they belong to.
Key:
[1] = Solubility testing, saturated solutions in milli-Q water at ambient temperature; details: thermodynamic from solid
Procedure: The solutions were centrifuged at 12,500 rpm for 30 minutes. 100 μl of the supernatant were pipetted in triplicates from each of the solution into separate empty vials of known weights. The content of these vails were left to dry in a vacuum oven overnight. The final weights of the vials were determined and the amount of each of the compounds calculated from the weight difference. Solubility in mmol/L for each compound was finally determined.

[2] = Cyclic voltammetry of the compounds of Examples 3, 4a and 4b; assay type: physicochemical; details: for Decomposition during cyclic voltammetry: both acidic and neutral electrolytes; for Redox potential vs. Ag/AgCl, first redox process / Redox potential vs. Ag/AgCl, second redox process: neutral electrolyte; for Redox potential E^0′ vs. Ag/AgCl: single redox process
Procedure: All CV measurements were carried out in a custom built 10 ml three-electrode electrochemical cell. The lower part of the cell holds the electrolyte of interest. In the upper part are ports to hold the working electrode, reference electrode and auxiliary electrode as well as inlet and outlet for N2 gas. […] Cyclic voltammograms were recorded at scan rates of 10 mVs^−1, 20 mVs^−1, 50 mVs^−1, 100 mVs^−1 and 250 mVs^−1 at room temperature. Prior to measurements, the electrolyte was de-aerated by continuously purging with N2 gas for 10-15 minutes and maintaining a N2 flow-blanket throughout the experiment to minimize any environmental contamination. Also, 80% of the ohmic drop was compensated for during the experiment using a positive feedback-loop.

[3] = Cyclic voltammetry of NDI at different pH values; assay type: physicochemical; details: pH below 3
Excerpt: The electrochemistry of NDI was examined by CV at a range of different pH values, to gain understanding of the electron transfer reaction mechanism. FIG. 2a and FIG. 2b show cyclic voltammograms (CVs) for NDI at pH 7 and 0, respectively. […] The broadness of the first reduction at pH 7, is assumed to be due to the possibility for the first electron to add at different positions of NDI.
A plot of the reduction potentials for NDI at different pHs is seen in FIG. 3. […] The second reduction, the triangles in the figure, has a slope of 91 mV/pH at pH below 3, indicating a one electron-1.5 proton relationship, according to the Nernst equation.

[4] = Bulk electrolysis cycling of NDI; assay type: physicochemical; details: 25 mM in pH 6.4 phosphate buffer, twelve cycles at 15 mA, roughly a week
Procedure: A solution of 25 mM NDI in pH 6.4 sodium phosphate buffer was cycled in a bulk electrolysis cell, where all of the material is reduced, as opposed to CV and RDE, where only a small fraction of the material is probed. A galvanostatic BE setting was used, where a constant current of 40 mA was applied. The electrolysis was intermittently paused, allowing for CVs to be collected to be able to quantify the amount of NDI that has been reduced. The peak heights from the CVs were correlated to the passed current, and it was seen that the complete capacity of NDI could be accessed using bulk electrolysis. […] For NDI, the reduction of the molecule lowers the monomer concentration in the solution, and the dimerization equilibrium is shifted in the direction of dimer separation.
After the initial sweep, continuous cycling at a current of 15 mA was performed for twelve cycles. A CV was collected after the cycling had finished, roughly a week after starting. […] Apart from that, the NDI molecule is synthesized via a one-step reaction, at room temperature in water with an almost 100% yield. It is water soluble up to 0.7 M, and has a lower reduction potential than any of the other examined molecules, resulting in a high battery voltage in the application.

Diffusion NMR of NDI = assay type: physicochemical
Excerpt: Addition of three protons to each NDI molecule at pH values as high as 3 is unlikely, since the third proton would be at a weakly basic carbonyl. This is further supported by the lack of buffering at lower pHs in the titration curve in FIG. 1.

[5] = Titration of tertiary NDI in water with 1 M sodium hydroxide; assay type: physicochemical; details: 50 ml 15.6 mM tertiary NDI in water
Excerpt: The quaternization is only necessary if the molecule is to be examined at higher pH values, since the tertiary amine sidechains are protonated for pH values less than about 8 (pKa≈8.1) as shown by the titration curve in FIG. 1. In FIG. 1 it can be seen that the molecule deprotonates above pH 8 and precipitates out of solution. For actual flow battery applications, i.e. redox flow battery according to the present invention, the last reaction step is thus possible to omit.

Water solubility of NDI = assay type: physicochemical
[6] = 0.5M sodium phosphate buffer of pH 7, scan rate 10 mVs^−1
[7] = 0.5M sodium phosphate buffer of pH 7, scan rate 20 mVs^−1
[8] = 0.5M sodium phosphate buffer of pH 7, scan rate 50 mVs^−1
[9] = 0.5M sodium phosphate buffer of pH 7, scan rate 100 mVs^−1
[10] = 0.5M sodium phosphate buffer of pH 7, scan rate 250 mVs^−1
[11] = 1M sulfuric acid, scan rate 10 mVs^−1
[12] = 1M sulfuric acid, scan rate 20 mVs^−1
[13] = 1M sulfuric acid, scan rate 50 mVs^−1
[14] = 1M sulfuric acid, scan rate 100 mVs^−1
[15] = 1M sulfuric acid, scan rate 250 mVs^−1
[16] = acidic electrolyte (1 M sulfuric acid)

solubility ([1]; Average, average of tests 1-3): 149 mM
solubility ([1]; Test 1, milli-Q water): 142 mM
solubility ([1]; Test 2, milli-Q water): 151 mM
solubility ([1]; Test 3, milli-Q water): 154 mM
Potential vs. Ag/AgCl, first pair of peaks ([2]; acidic electrolyte, first redox process): ~−0.13 V
Potential vs. Ag/AgCl, second pair of peaks ([2]; acidic electrolyte, second redox process): ~−0.38 V
Decomposition during cyclic voltammetry [2]: no evidence of decomposition
Redox potential vs. Ag/AgCl, first redox process ([2]; first redox process): −0.05 V
Redox potential vs. Ag/AgCl, second redox process ([2]; second redox process): −0.65 V
Compound: C[N+](C)(C)CCCN1C(=O)c2cc(Br)c3c4c(cc(Br)c(c24)C1=O)C(=O)N(CCC[N+](C)(C)C)C3=O [Compound 3, 3,3′-(4,9-dibromo-1,3,6,8-tetraoxo-1,3,6,8-tetrahydrobenzo[Imn][3,8]phenanthroline-2,7-diyl)bis(N,N,N-trimethylpropan-1-aminium) chloride]

E^0′ vs. Ag/AgCl [2, 6]: −0.43 V
peak current ratio ipa/ipc [2, 6]: 0.82 ± 0.04
ΔEp [2, 6]: 49.21 ± 8.49 mV
E^0′ vs. Ag/AgCl [2, 7]: −0.43 V
peak current ratio ipa/ipc [2, 7]: 0.80 ± 0.05
ΔEp [2, 7]: 51.87 ± 9.16 mV
E^0′ vs. Ag/AgCl [2, 8]: −0.43 V
peak current ratio ipa/ipc [2, 8]: 0.74 ± 0.06
ΔEp [2, 8]: 61.48 ±12.09 mV
E^0′ vs. Ag/AgCl [2, 9]: −0.43 V
peak current ratio ipa/ipc [2, 9]: 0.69 ± 0.07
ΔEp [2, 9]: 68.59 ± 14.05 mV
E^0′ vs. Ag/AgCl [2, 10]: −0.43 V
peak current ratio ipa/ipc [2, 10]: 0.63 ± 0.07
ΔEp [2, 10]: 86.49 ± 20.99 mV
E^0′ vs. Ag/AgCl [2, 11]: −0.13 V
peak current ratio ipa/ipc [2, 11]: 0.91 ± 0.05
ΔEp [2, 11]: 63.67 ± 10.03 mV
E^0′ vs. Ag/AgCl [2, 12]: −0.13 V
peak current ratio ipa/ipc [2, 12]: 0.92 ± 0.01
ΔEp [2, 12]: 63.31 ± 10.97 mV
E^0′ vs. Ag/AgCl [2, 13]: −0.13 V
peak current ratio ipa/ipc [2, 13]: 0.89 ± 0.02
ΔEp [2, 13]: 64.97 ± 10.46 mV
E^0′ vs. Ag/AgCl [2, 14]: −0.13 V
peak current ratio ipa/ipc [2, 14]: 0.87 ± 0.00
ΔEp [2, 14]: 66.31 ± 9.29 mV
E^0′ vs. Ag/AgCl [2, 15]: −0.13 V
peak current ratio ipa/ipc [2, 15]: 0.82 ± 0.01
ΔEp [2, 15]: 71.25 ± 11.85 mV
Redox potential E^0′ vs. Ag/AgCl [2, 16]: −0.13 V
Redox potential E^0′ vs. Ag/AgCl ([2]; neutral electrolyte (0.5 M sodium phosphate buffer pH 7)): −0.43 V
Compound: 4,9-dibromo-2,7-bis(3-(dimethylamino)propyl)benzo[Imn][3,8]phenanthroline-1,3,6,8(2H,7H)-tetraone [Compound 1]

solubility ([1]; Average, average of tests 1-3): 678 mM
solubility ([1]; Test 1, milli-Q water): 653 mM
solubility ([1]; Test 2, milli-Q water): 689 mM
solubility ([1]; Test 3, milli-Q water): 691 mM
Redox potential E^0′ vs. Ag/AgCl [2, 16]: ~−0.32 V
Decomposition during cyclic voltammetry [2]: no evidence of decomposition
Redox potential vs. Ag/AgCl, first redox process ([2]; first redox process): ~−0.30 V
Redox potential vs. Ag/AgCl, second redox process ([2]; second redox process): ~−0.63 V
Compound: C[N+](C)(C)CCCN1C(=O)c2ccc3c4c(ccc(c24)C1=O)C(=O)N(CCC[N+](C)(C)C)C3=O [Compound 2, Benzo[Imn][3,8]phenanthroline-2,7-dipropanaminium, 1,3,6,8-tetrahydro-N,N,N,N′,N′,N′-hexamethyl-1,3,6,8-tetraoxo-, dichloride]

Slope of second reduction potential versus pH [3]: 91 mV/pH
Material degradation after cycling (CV before vs after) [4]: no or little material degradation
Diffusion coefficient (Diffusion NMR of NDI; acid solution): 2.57 ×10^−6 cm^2 s^−1
Diffusion coefficient (Diffusion NMR of NDI; neutral solution): 2.34 ×10^−6 cm^2 s^−1
pKa of tertiary amine sidechains [5]: ≈ 8.1
Water solubility (Water solubility of NDI): up to 0.7 M
Compound: CN(C)CCCN1C(=O)c2ccc3c4c(ccc(c24)C1=O)C(=O)N(CCCN(C)C)C3=O [NDI, 2,7-bis(3-(dimethylamino)propyl)benzo[Imn][3,8]phenanthroline-1,3,6,8(2H,7H)-tetraone]

Reference: patent US20230318003A1, “REDOX FLOW BATTERY AND AQUEOUS-BASED SOLUTION” (RIVUS AB, priority 2020, published 2023)
